Test results from paper PMC12308805, “Ultrahigh-Throughput Virtual Screening Strategies against PPI Targets: A Case Study of STAT Inhibitors” (Journal of Chemical Information and Modeling, 2025).
“And” between values parts separate entries of the source, which are not always exact repeats. Equal entries are not always repeated.

Tests used:
Format in all cases: binding
[1] = target: T1, STAT3 (127–770) SH2 domain (Homo sapiens, UniProt P40763); assay: Fluorescence polarization assay (FP-assay), STAT3 SH2 domain; set-up: key to identified as active in FP-assay: A compound was identified as active, if it had a mean IC50 value under 100 μM; conditions: for IC50: FP-assay, mean IC50, at least three biological replicates
T1 construct: For STAT3 (127–770), the final concentration of the protein was 200 nM; made in house
T1 sequence (P40763 127-770): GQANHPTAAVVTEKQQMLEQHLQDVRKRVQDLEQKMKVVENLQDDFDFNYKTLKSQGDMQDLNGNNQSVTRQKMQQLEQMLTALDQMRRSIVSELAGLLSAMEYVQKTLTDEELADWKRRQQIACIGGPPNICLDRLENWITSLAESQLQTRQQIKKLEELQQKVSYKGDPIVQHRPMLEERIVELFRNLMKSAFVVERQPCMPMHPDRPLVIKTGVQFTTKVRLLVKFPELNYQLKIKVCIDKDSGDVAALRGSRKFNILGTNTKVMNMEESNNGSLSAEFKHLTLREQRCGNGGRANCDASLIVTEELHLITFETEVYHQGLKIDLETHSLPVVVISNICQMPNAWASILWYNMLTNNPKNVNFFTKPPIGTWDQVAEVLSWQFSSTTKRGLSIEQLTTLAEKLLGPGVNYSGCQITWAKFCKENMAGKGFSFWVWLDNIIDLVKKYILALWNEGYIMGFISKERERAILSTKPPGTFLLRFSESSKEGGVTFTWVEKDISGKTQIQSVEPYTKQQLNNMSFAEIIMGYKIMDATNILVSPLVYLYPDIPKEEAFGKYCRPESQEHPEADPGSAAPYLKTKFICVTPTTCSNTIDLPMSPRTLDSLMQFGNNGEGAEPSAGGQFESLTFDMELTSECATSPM
Experimental: (§1) The respective protocols for the expression and purification of the STAT3 SH2 and STAT5b SH2 domains were published in our recent works. Fluorescence polarization assays (FP-assays) were performed on a Molecular Devices SpectraMax iD5Multimode Microplate Reader (San Jose, CA, USA) using Greiner black 384-well flat-bottom nonbinding microplates with 40 μL final well volumes. The fluorescent peptides (5-FAM-G(pTyr)-LPQTV-NH2 and 5-FAM-G(pTyr)-LVLDKW-NH2, purchased from GenScript Biotech Ltd., Piscataway, NJ, USA), as well as the proteins, were diluted with a buffer containing 50 mM NaCl, 10 mM HEPES (4-(2-hydroxyethyl)-1-piperazineethanesulfonic acid), 1 mM EDTA (ethylenediaminetetraacetic acid), 2 mM DTT (dithiothreitol), and 0.1% Triton X-100, pH 7.5. For STAT3 (127–770), the final concentration of the protein was 200 nM, and the fluorescent peptide (5-FAM-G(pTyr)-LPQTV-NH2) was added at a final concentration of 5 nM; for STAT5b (136–703), the final concentration of the protein was 500 nM, and the fluorescent peptide (5-FAM-G(pTyr)-LVLDKW-NH2) was added at a final concentration of 10 nM. The wells were treated with varying concentrations of inhibitors (1250 to 0.11 μM final concentrations). The final DMSO content was 2.5%. After mixing, the protein and inhibitors were incubated at room temperature for 30 min, then the fluorescent peptide was added, and the plate was incubated for another 20 min prior to the fluorescence readout (extinction wavelength: 475 nm, emission wavelength: 520 nm). The measurements were carried out in at least three biological replicates. Fluorescence polarization was calculated from the perpendicular and parallel fluorescence intensities and then plotted against concentration. The IC50 values were determined after fitting quadratic dose–response curves on the data points in GraphPad Prism 8.0.1. […] All plotted curves and data points for the hit compounds are included in Section 2 of the Supporting Information.

[2] = target: T2, STAT5b N-terminal domain (NTD) (Homo sapiens, UniProt P51692); assay: Isothermal titration calorimetry (ITC), STAT5b-NTD; set-up: key to identified as active in ITC: A compound was identified as active, if it had a mean Kd value under 100 μM; conditions: for Kd: ITC, 25 °C, 1X PBS pH 7.4, 8% DMSO, single-site fit
T2 sequence (P51692 1-126 limits assumed): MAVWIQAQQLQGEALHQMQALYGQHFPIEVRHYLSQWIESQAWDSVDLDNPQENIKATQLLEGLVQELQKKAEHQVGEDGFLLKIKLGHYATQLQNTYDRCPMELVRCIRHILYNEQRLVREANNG
Experimental: The detailed protocol for the expression and purification of the STAT5b-NTD was described in our recent work. ITC measurements were carried out on a MicroCal PEAQ-ITC microcalorimeter (Malvern Instruments, Worcestershire, UK). All protein and ligand solutions were composed of 1X PBS (pH 7.4) buffer containing 8% (V/V) DMSO to avoid buffer mismatch. Protein solutions containing 25-26 μM protein were prepared in batches prior to measurements by diluting 676 μM stock solution (stored in 1X PBS (pH 7.4) buffer at -80 °C) warmed to room temperature with 1X PBS (pH 7.4) buffer solution and an appropriate amount of DMSO. Ligand solutions were prepared by first dissolving the ligands in DMSO to acquire a 50 mM stock solution, which was then diluted to 1 mM (in the case of […]_M2 ligand) or 4 mM (all other ligands) concentration using 1X PBS (pH 7.4) buffer solution. Appropriate amounts of DMSO were also added to the solution containing 1 mM ligand to yield a 8% (V/V) DMSO content. The protein solution was loaded into the sample cell in a volume of 200 μL and was titrated at 25 °C with the ligand solution at a stirring speed of 1000 rpm and a reference heat rate of 10 μcal/s in a high feedback mode. Used initial delay was 120 s, and the injection program was composed of an initial first injection with 0.5 μL over 2 s, followed by 18 injections with 2 μL over 4 s. Injections were performed every 180 s. Blank measurements consisting of titrating the ligand into the buffer (1X PBS (pH 7.4) containing 8% (V/V) DMSO) were carried out to correct for the heat of dilution for all ligands using the appropriate injection program. Data were analyzed using the MicroCal PEAQ-ITC analysis software (version 1.22) by fitting a single-site binding curve. […] Binding curves of the identified active compounds are included in Supporting Information Figures S3-S5.

[3] = target: T3, STAT5b (136–703) SH2 domain (Homo sapiens, UniProt P51692); assay: Fluorescence polarization assay (FP-assay), STAT5b SH2 domain; set-up: key to identified as active in FP-assay: A compound was identified as active, if it had a mean IC50 value under 100 μM; conditions: for IC50: FP-assay, mean IC50, at least three biological replicates
T3 sequence (P51692 136-703): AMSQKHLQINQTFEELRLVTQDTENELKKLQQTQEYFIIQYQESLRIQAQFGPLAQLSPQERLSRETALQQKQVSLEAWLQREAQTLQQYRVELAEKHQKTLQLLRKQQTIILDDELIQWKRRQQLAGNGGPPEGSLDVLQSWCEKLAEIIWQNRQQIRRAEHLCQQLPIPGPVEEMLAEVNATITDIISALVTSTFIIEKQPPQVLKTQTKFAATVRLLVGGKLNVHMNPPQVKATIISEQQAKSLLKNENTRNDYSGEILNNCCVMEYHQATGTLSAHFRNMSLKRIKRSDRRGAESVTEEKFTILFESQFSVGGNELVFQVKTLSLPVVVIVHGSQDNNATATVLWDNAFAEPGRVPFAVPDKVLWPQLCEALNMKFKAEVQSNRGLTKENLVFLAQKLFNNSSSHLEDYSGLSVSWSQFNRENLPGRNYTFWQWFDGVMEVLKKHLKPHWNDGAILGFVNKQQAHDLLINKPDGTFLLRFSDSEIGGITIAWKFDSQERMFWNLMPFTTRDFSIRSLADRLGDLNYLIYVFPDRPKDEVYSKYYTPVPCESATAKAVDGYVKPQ
Experimental: as §1

Nc1ccc(-n2ccc(C(=O)O)n2)nc1 [S3_B12, Nc1ccc(nc1)n1ccc(n1)C(=O)O]
identified as weakly binding in FP-assay [1]: weakly binding (A weakly binding compound (mean IC50 value higher than 100 μM)) | IC50 [1]: > 100 µM and 104 µM

NC(=O)C1CCN(C(=O)c2ccccc2NC(=O)c2cccc(NC(=O)CCn3ccnc3)c2)CC1 [S3_E3, NC(=O)C1CCN(CC1)C(=O)c2ccccc2NC(=O)c3cccc(c3)NC(=O)CCn4cc[n]c4]
identified as weakly binding in FP-assay [1]: weakly binding (A weakly binding compound (mean IC50 value higher than 100 μM)) | IC50 [1]: 472 ± 112 µM

NC(=O)CSc1ccccc1C(=O)NC[C@H](O)COc1ccc2c(c1)OCO2 [S3_E4, NC(=O)CSc1ccccc1C(=O)NC[C@H](O)COc(cc2)cc(c23)OCO3]
identified as active in FP-assay [1]: active | IC50 [1]: 13.6 ± 6.1 µM

COc1ccccc1COC[C@@H](O)CN[C@H](C)c1cccc(S(N)(=O)=O)c1 [S3_E5, COc1ccccc1COC[C@@H](O)C[NH][C@H](C)c2cccc(c2)S(=O)(=O)N]
identified as active in FP-assay [1]: active | IC50 [1]: 26.7 ± 22.2 µM

O=[N+]([O-])c1ccccc1S(=O)(=O)NC[C@H](O)COc1ccc2c(c1)OCO2 [S3_E6, O=[N+]([O-])c1ccccc1S(=O)(=O)NC[C@H](O)COc(cc2)cc(c23)OCO3]
identified as active in FP-assay [1]: active | IC50 [1]: 21.7 ± 10.4 µM

Cc1cccc(OC[C@@H](O)CN(C(=O)NC[C@H]2CC(C(N)=O)=NO2)C(C)C)c1 [S3_E7, Cc1cc(ccc1)OC[C@@H](O)CN(C(C)C)C(=O)NC[C@H]2CC(=NO2)C(=O)N]
identified as active in FP-assay [1]: active | IC50 [1]: 62.7 ± 25.1 µM

NCCN(Cc1csc(COc2ccccc2)n1)C[C@@H](O)CO [S3_E8, OC[C@H](O)CN(CC[NH2])Cc1csc(n1)COc2ccccc2]
identified as weakly binding in FP-assay [1]: weakly binding (A weakly binding compound (mean IC50 value higher than 100 μM)) | IC50 [1]: 454 ± 181 µM

C[C@@H](NC(=O)[C@@H]1CCCC[C@@H]1C(=O)O)c1ccncc1 [S3_M2, c1cnccc1[C@@H](C)NC(=O)[C@@H]2CCCC[C@@H]2C([OH])=O]
identified as active in FP-assay [1]: active | IC50 [1]: 80 ± 34.3 µM

O=C(O)c1[nH]c2ccccc2c1C(=O)O [S3_M5, [OH]C(=O)c([nH]1)c(C(=O)[OH])c(c12)cccc2]
identified as active in FP-assay [1]: active | IC50 [1]: 53.2 ± 46.9 µM

O=C(O)CCCn1ccc2c(nnc3ccnn32)c1=O [S3_M13, n1ccc(nn2)n1c(c23)ccn(c3=O)CCCC([OH])=O]
identified as active in FP-assay [1]: active | IC50 [1]: 64.4 ± 17.7 µM

Nc1ccc(C(=O)O)c(C(=O)O)c1 [S3_M15, Nc1cc(C([OH])=O)c(C([OH])=O)cc1]
identified as weakly binding in FP-assay [1]: weakly binding (A weakly binding compound (mean IC50 value higher than 100 μM))

Cc1cc(=O)c(C(=O)O)c(O)[nH]1 [S3_M16, [OH]C(=O)c1c(=O)cc(C)[nH]c1O]
IC50 [1]: 111 ± 64.7 µM

Cc1c(O)ccc2c(CC(=O)NCC(=O)NCC(=O)O)cc(=O)oc12 [S3_O10, Cc1c(O)ccc2c(CC(=O)NCC(=O)NCC(=O)[OH])cc(=O)oc12]
identified as active in FP-assay [1]: active | IC50 [1]: 99.9 ± 55.6 µM

O=C(NCC[C@@H](O)c1ccc2c(c1)OCO2)C(=O)Nc1ccc(F)c(Cl)c1 [S5N_M1, Clc(c1)c(F)ccc1NC(=O)C(=O)NCC[C@@H](O)c(cc2)cc(c23)OCO3]
identified as weakly binding in ITC [2]: weakly binding (weakly binding (mean Kd is higher than 100 μM)) | Kd [2]: 484 ± 22.5 µM

C[C@@](O)(CNC(=O)NCc1cccc2ccccc12)c1ccc2c(c1)OCO2 [S5N_M2, c1cccc(c12)c(ccc2)CNC(=O)NC[C@@](C)(O)c(cc3)cc(c34)OCO4]
identified as active in ITC [2]: active | Kd [2]: 34.9 ± 4.29 µM

O=C(NC[C@@]1(O)CCCNC1)Nc1cc(Cl)ccc1Cl [S5N_M4, Clc(c1)ccc(Cl)c1NC(=O)NC[C@@]2(O)CCC[NH]C2]
identified as active in ITC [2]: active | Kd [2]: 81.3 ± 12.7 µM

O=C(O)C[C@@H](O)c1nc2ccccc2[nH]1 [S5_M1, [OH]C(=O)C[C@@H](O)c([nH]1)nc(c12)cccc2]
identified as active in FP-assay [3]: active | IC50 [3]: 38.7 ± 13.7 µM

COc1cnc(CSc2nc(C)cc(C)n2)cc1OCC(N)=O [S5_M2, Cc(n1)cc(C)nc1SCc2cc(c(cn2)OC)OCC(=O)N]
identified as active in FP-assay [3]: active | IC50 [3]: 62.4 ± 28.2 µM

Cc1c(CC(=O)N[C@H](CCCCNC(N)=O)C(=O)O)c(=O)oc2cc(O)ccc12 [S5_M6, c1cc(O)cc(c12)oc(=O)c(c2C)CC(=O)N[C@@H](C([OH])=O)CCCCNC(=O)N]
identified as weakly binding in FP-assay [3]: weakly binding (A weakly binding compound (mean IC50 value higher than 100 μM)) | IC50 [3]: 378 ± 108 µM

O=C(O)[C@@H](O)[C@@H](O)c1nc2ccccc2[nH]1 [S5_M7, [OH]C(=O)[C@@H](O)[C@@H](O)c([nH]1)nc(c12)cccc2]
identified as active in FP-assay [3]: active | IC50 [3]: 16.2 ± 8.2 µM

Nc1nc(NCCc2cn3ccsc3n2)cc([C@H]2C[C@H](O)C2)n1 [S5_M8, s1ccn(c12)cc(n2)CCNc3cc(nc(n3)N)[C@@H]4C[C@H](C4)O]
identified as active in FP-assay [3]: active | IC50 [3]: 41.2 ± 10.5 µM

O=C(CCc1nc2ccccc2[nH]1)NCc1cc(-c2ccccc2)[nH]n1 [S5_M9, c1cccc(c12)[nH]c(n2)CCC(=O)NCc3n[nH]c(c3)-c4ccccc4]
identified as active in FP-assay [3]: active | IC50 [3]: 42.6 ± 20.2 µM

O=C(NCCc1cnccn1)[C@H]1CCCN(C2CCN(Cc3ccncc3)CC2)C1 [S5_M13, c1cnccc1CN(CC2)CCC2[N@@]3CCC[C@@H](C3)C(=O)NCCc4cnccn4]
identified as active in FP-assay [3]: active

Cn1c(CN2CCC(O)CC2)nnc1[C@H]1CCCN(Cc2ncc[nH]2)C1 [S5_M14, C1CC(O)CCN1Cc(n2C)nnc2[C@H]3CCCN(C3)Cc4[nH]cc[n]4]
IC50 [3]: 13.8 ± 14.9 µM
